Data on one compound can be found in paper PMC9636434, “Discovery of small molecule agonists of the Relaxin Family Peptide Receptor 2” (Communications Biology, 2022).

Several values for one entry are separate records, joined by “and”; a condition that tells them apart may be missing. Equal entries are not always repeated. Entries after “also recorded” stand apart in the source; their conditions may differ.

Common to all, as to assay type: cell-based
The target in one experiment is human TSHR (Homo sapiens, UniProt P16473). Nature of the experiment: HitHunter cAMP XS+ assay, cAMP Hunter cell line TSHR. The conditions noted are these: for RLU: replicates (1),(2). From the text: Results are reported as raw RLU values and represent the
mean ± SEM of 2 technical replicates.

Another experiment deals with T1, mouse RXFP1 (Mus musculus, UniProt Q6R6I7).
T1 construct: FLAG (N); expressed in transfected cells
T1 sequence (Q6R6I7 1-758): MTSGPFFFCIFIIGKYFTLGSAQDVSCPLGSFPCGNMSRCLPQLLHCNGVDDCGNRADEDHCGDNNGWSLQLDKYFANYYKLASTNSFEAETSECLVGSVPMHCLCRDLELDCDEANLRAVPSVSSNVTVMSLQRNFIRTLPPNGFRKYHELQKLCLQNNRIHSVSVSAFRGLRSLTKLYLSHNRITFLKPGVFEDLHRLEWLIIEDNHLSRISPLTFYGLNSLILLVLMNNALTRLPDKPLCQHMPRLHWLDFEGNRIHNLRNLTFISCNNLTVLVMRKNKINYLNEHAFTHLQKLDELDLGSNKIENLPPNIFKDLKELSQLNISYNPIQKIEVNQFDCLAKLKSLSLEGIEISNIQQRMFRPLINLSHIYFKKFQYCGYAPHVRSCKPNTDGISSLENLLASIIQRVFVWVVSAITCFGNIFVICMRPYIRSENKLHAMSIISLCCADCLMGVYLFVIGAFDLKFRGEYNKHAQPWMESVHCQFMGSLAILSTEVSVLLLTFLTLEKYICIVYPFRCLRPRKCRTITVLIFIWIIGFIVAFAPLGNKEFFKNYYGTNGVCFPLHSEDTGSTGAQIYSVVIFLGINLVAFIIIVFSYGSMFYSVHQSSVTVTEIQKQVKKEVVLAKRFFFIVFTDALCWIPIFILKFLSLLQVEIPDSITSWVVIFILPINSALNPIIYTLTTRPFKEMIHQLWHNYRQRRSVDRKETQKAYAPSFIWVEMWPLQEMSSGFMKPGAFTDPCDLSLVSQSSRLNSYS
Nature of the experiment: HTRF cAMP counter-screen in HEK293T cells expressing mouse RXFP1. The conditions noted are these: for % Eff (cAMP): mouse RXFP1, experiments (1)-(3). As for the experimental part:
The HTRF Gs dynamic cAMP assay kit (CisBio, Bedford, MA) was used to measure intracellular cAMP accumulation in HEK293T cells (ATCC, Manassas, VA)[56]. […] The cell stock was verified mycoplasma free and authenticated by ATCC. Transient transfection was accomplished by treating cells in a 6-well plate with a mixture of 2 μg plasmid and 6 μL Lipofectamine 2000 (Invitrogen, Waltham, MA) per manufacturer’s protocol and incubating overnight. For cAMP measurement in 96-well format, HEK293T cells stably transfected with human RXFP2 (HEK-RXFP2), human RXFP1 (HEK-RXFP1), mouse Rxfp1 (HEK-Rxfp1) or transiently transfected with human RXFP1-RXFP2 chimeric receptors were seeded between 7500 and 30,000 cells per well, depending on cell line responsiveness, in serum-free DMEM medium and incubated overnight at 37 °C, 5% CO2. After 18 h, cells were treated with a titration of compound, 2 μM forskolin, or DMSO vehicle. Control wells were also treated with a titration of INSL3 (Phoenix Pharmaceuticals, Burlingame, CA) or human recombinant relaxin 2 (Peprotech, Cranbury, NJ). For the RXFP2 antagonist experiment, cells were co-treated with 0.28 μM compound or 30 nM INSL3 and a titration of the INSL3 B dimer antagonist[38],[39]. For the INSL3 allosteric modulation experiment, cells were co-treated with 0.025, 0.0025, or 0.00025 μM of compound and a titration of INSL3. Cells were incubated for 1 h at 37 °C, 5% CO2, and then kit cAMP-d2 and anti-cAMP antibody were added per manufacturer protocol. Plates were incubated for 1 h at room temperature and the signal was read on a CLARIOstar plate reader (BMG Labtech, Ortenberg, Germany) at 665 and 620 nm emission wavelengths. […]
receptors. HTRF cAMP counter-screen of RXFP2 agonists in HEK293T cells expressing a human RXFP1 and b mouse RXFP1. Relaxin 2 was used as positive control for RXFP1 receptor activation. Results are expressed as mean ± SEM of 3
(TR-FRET usually uses a lanthanide donor and a delayed reading to cut background.)

Another experiment has as its target T2, mouse RXFP2 (Mus musculus, UniProt Q91ZZ5).
T2 construct: FLAG (N); expressed in transfected cells; host or cells: HEK293T-CRE-Luc (transient)
Put plainly: CRE-luciferase reporter assay in HEK293T-CRE-Luc cells transiently transfected with mouse Rxfp2. From the text:
Therefore, we examined the capacity of the identified human RXFP2 agonists to activate murine RXFP2. […] The observed difference between CRE-luciferase reporter assays with human and mouse RXFP2 might be due to a lower expression of the receptor in transiently transfected mouse RXFP2 cells compared to the stably transfected human RXFP2 cell line.
HEK293T-CRE-Luc cells express luciferase under the control of the cAMP response element (CRE), which allows for indirect measurement of intracellular cAMP accumulation. HEK293T-CRE-Luc cells were stably transfected with human RXFP2 (HEK-CRE-Luc-RXFP2) or transiently transfected as above with mouse Rxfp2 (HEK-CRE-Luc-Rxfp2). HEK-CRE-Luc-RXFP2 and HEK-CRE-Luc-Rxfp2 cells were seeded at 15,000 and 30,000 cells per well, respectively, in 96-well plates using serum-free DMEM medium and incubated overnight at 37 °C, 5% CO2. After 18 h, cells were treated with a titration of compound, a titration of INSL3, 5 μM forskolin or DMSO vehicle. After treatment, cells were incubated for 3 h at 37 °C, 5% CO2. […] Plates were incubated for 40 min at room temperature protected from light and the luciferase output was read on a CLARIOstar plate reader. […]
Results are expressed as mean ± SEM of 3 independent experim ents. […]
A general note: In a reporter assay the amount or activity of a reporter protein is the signal.

T2 sequence (Q91ZZ5 whole entry): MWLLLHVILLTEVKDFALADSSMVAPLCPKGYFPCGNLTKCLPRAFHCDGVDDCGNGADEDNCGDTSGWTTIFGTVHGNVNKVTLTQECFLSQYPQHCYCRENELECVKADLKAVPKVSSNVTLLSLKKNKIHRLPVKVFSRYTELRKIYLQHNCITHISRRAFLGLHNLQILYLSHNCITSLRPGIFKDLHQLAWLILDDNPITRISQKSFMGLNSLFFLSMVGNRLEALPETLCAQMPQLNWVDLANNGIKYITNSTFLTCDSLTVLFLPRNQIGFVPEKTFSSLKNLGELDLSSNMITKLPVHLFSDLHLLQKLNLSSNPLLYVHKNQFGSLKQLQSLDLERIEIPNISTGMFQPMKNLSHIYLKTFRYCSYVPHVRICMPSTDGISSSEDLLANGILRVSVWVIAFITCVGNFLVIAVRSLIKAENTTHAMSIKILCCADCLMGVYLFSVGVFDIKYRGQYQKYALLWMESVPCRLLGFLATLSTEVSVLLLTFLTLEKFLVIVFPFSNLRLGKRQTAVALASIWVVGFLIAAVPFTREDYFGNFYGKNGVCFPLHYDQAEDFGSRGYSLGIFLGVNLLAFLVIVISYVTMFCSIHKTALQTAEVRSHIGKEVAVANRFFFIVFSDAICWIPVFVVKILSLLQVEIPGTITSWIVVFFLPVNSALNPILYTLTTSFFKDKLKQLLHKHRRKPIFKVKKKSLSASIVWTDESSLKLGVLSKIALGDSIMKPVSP
Sequence of human TSHR (P16473 21-764): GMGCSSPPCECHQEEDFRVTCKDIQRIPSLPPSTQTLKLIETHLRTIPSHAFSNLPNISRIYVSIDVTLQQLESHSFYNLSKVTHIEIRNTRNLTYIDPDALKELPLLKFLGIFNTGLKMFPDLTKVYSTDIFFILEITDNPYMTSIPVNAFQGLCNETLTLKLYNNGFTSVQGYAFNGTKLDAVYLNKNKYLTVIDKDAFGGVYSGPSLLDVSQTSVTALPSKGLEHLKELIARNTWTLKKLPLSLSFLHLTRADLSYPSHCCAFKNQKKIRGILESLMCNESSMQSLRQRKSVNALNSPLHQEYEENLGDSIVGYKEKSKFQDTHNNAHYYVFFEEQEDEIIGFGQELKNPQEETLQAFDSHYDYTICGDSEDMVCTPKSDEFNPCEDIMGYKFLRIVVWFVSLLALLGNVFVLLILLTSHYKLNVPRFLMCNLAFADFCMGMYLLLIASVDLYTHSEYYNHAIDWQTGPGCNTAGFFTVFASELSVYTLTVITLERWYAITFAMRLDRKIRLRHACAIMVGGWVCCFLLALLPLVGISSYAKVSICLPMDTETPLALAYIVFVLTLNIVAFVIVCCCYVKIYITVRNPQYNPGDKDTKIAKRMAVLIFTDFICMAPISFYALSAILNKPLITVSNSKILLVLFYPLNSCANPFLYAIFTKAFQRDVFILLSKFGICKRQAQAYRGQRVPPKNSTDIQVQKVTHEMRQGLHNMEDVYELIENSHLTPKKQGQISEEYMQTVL

Take `O=C1Nc2ccc(-c3cc(C(F)(F)F)cc(C(F)(F)F)c3)cc2C(=O)N2CCN(C(=O)COc3ccc(OC(F)(F)F)cc3I)C[C@@H]12` [compound 6641]: the “cAMP response through TSHR” value at human TSHR (Hit Hunter cAMP assay) is given as “did not result in an increase of cAMP level”. In addition, the RLU was 1000 RLU and 1240 RLU on human TSHR (Log [M] -4.70); 1000 RLU and 1040 RLU on human TSHR (Log [M] -5.18); 960 RLU on human TSHR (Log [M] -5.65); 1040 RLU at human TSHR (Log [M] -6.13); 1200 RLU on human TSHR (Log [M] -6.61); 880 RLU at human TSHR (Log [M] -7.08). The RLU is 920 RLU and 1000 RLU at human TSHR (Log [M] -7.56); 880 RLU at human TSHR (Log [M] -8.04); 1080 RLU and 920 RLU at human TSHR (Log [M] -8.52); 960 RLU and 1040 RLU on human TSHR (Log [M] -8.99). In addition, the “activation of mouse RXFP1 receptor” value on mouse RXFP1 (HTRF cAMP) is recorded as “do not activate”. For the same compound, the “% Eff (cAMP)” value at mouse RXFP1 (Log [M] -4.60) is -2.207% and -2.077% and -4.472%; on mouse RXFP1 (Log [M] -5.60) it was -1.251% and -0.3652% and -2.403%; on mouse RXFP1 (Log [M] -6.60), -1.454% and 0.6194% and -2.041%; on mouse RXFP1 (Log [M] -7.60) it was -0.3802% and -0.7758% and -2.5668%. In addition, the activation at 0.0251 µM at mouse RXFP2 (mouse RXFP2, Log [M] -7.60, experiments (1)-(3), read-out: % Eff (CRE-luciferase)) is 28.9%. Further, at mouse RXFP2 (transiently transfected cells), the “agonism of mouse RXFP2 in CRE-luciferase reporter assay” value was “activate the mouse RXFP2 receptor; also recorded: full agonist”.
